Values after ≈ are worked out from the molar mass of the structure shown. Read-outs that look alike come from different tables or passages of the source.
Experiments:
[1] = test system: quinolone resistant pneumococci; experiment: Determination of efflux mechanism: MICs in the presence and absence of reserpine; format: cell-based, Streptococcus pneumoniae; details: for number of strains with lower MICs in the presence of reserpine: of 28 quinolone resistant strains, 10 μg/ml reserpine
Protocol: MICs were determined in the presence and absence of 10 μg/ml of reserpine (Sigma Chemicals, St. Louis, Mo.) as known in the art.
MICs were determined in the presence and absence of […] of reserpine (Sigma Chemicals, St. Louis, Mo., USA) as described previously (Brenwald, et al., Antimicrob. Agents Chemother. 42:2039-2035, 1998 and Davies, et al., Antimicrob. Agents Chemother. 43:1177-1182S, 1999).

[2] = test system: quinolone susceptible pneumococci (ciprofloxacin MICs ≦4.0 μg/ml); experiment: Agar dilution MICs of 207 quinolone susceptible pneumococcal strains; format: cell-based, Streptococcus pneumoniae; details: Streptococcus pneumoniae, agar dilution; for MIC90: read-out: MIC90; for MIC: read-out: MIC range
Protocol: All susceptible, and some intermediate and resistant strains, were recent U.S. isolates. The remainder of intermediate and resistant strains were isolated in South Africa, Spain, France, Central and Eastern Europe, and Korea. […] Additionally these strains were tested for mutations in parC, gyrA, parE, and gyrB (Pan, et al., Antimicrob. Agents Chemother. 40:2321-2326, 1996) and for efflux mechanism (Brenwald, et al., Antimicrob. Agents Chemother. 42:2032-2035, 1998). For time-kill studies, 4 penicillin susceptible, 4 intermediate and 4 resistant strains (2 quinolone resistant) were tested, while for PAE studies 5 quinolone susceptible and 1 resistant strains were studied.
(§1) Agar dilution methodology was performed on 234 strains as described previously (M. R. Jacobs, Clin. Infect. Dis. 15:119-127, 1992; Jacobs, et al., Rev. Med. Microbiol. 6:77-93, 1995), using Mueller-Hinton agar (BBL Microbiology Systems, Cockeysville, Md.) supplemented with 5% sheep blood. Broth MICs for 12 strains tested by time-kill and 6 tested by PAE were performed according to NCCLS recommendations (Methods for Dilution Antimicrobial Susceptibility Tests for Bacteria that Grow Aerobically, 3rd Edition, NCCLS, Villanova, Pa.) using cation-adjusted Mueller-Hinton broth with 5% lysed defibrinated horse blood. Standard quality control strains, including Streptococcus pneumoniae ATCC 49619, were included in each run of agar and broth dilution MICs.

pneumococcal strains = experiment: Microbroth dilution MICs of strains tested by time-kill and PAE; format: cell-based; details: Streptococcus pneumoniae, read-out: Microdilution MIC
Protocol: as §1

[3] = test system: quinolone-resistant Haemophilus influenzae strains; experiment: Microdilution MIC determination in HTM for quinolone-resistant Haemophilus influenzae strains; format: cell-based; details: 9 quinolone-resistant Haemophilus influenzae strains
Protocol: Inocula were prepared from chocolate agar plates incubated for a full 24 hours by the direct colony suspension method as follows: In a tube of Mueller-Hinton broth (Difco), an organism suspension was made to a density of a 0.5 McFarland standard (1×10^8 CFU/ml). The latter inoculum was diluted in sterile saline such that final organisms suspensions in trays yielded colony counts of 3-8×10^5 CFU/ml. Frozen microdilution trays were obtained from MicroMedia Systems, Inc. (Cleveland, Ohio, USA). Each tray contained all antimicrobials prepared in freshly made HTM. Wells were inoculated with 100 μl suspensions and incubated in ambient air at 35° C. for 20-24 hours. The lowest drug concentration showing no growth was read as the MIC. Standard quality control strains, including H. influenzae ATCC 49766, H. influenzae ATCC 49247, Staphylococcus aureus ATCC 29213 and Escherichia coli ATCC 25922 were included with each run.

[4] = test system: pneumococci (5 quinolone susceptible and 1 resistant strains); experiment: Post-antibiotic effect (PAE) testing; format: cell-based, Streptococcus pneumoniae
Protocol: The post-antibiotic effect (PAE) (Craig, et al., V. Lorian (ed.) Antibiotics in Laboratory Medicine, Williams and Wilkins, Baltimore, pages 296-399, 1996) was determined by the viable plate count method, using Mueller-Hinton broth (MHB) supplemented with 5% lysed horse blood when testing pneumococci. […] Additionally, the one quinolone resistant strain was exposed at quinolone concentrations 5×MIC. Tubes containing 5 ml broth with antibiotic were inoculated with approximately 5×10^6 cfu/ml. Growth controls with inoculum but no antibiotic were included with each experiment. Tubes were placed in a shaking water bath at 35° C. for 1 h. At the end of the exposure period, cultures were diluted 1:1000 to remove antibiotic.
Viability counts were determined before exposure and immediately after dilution (0 h), and then every 2 h until tube turbidity reached a #1 McFarland standard. Inocula were prepared by suspending growth from an overnight blood agar plate in broth. The broth was incubated at 35° C. for 2-4 h in a shaking water bath until turbidity matched a #1 McFarland standard, and checked for viability by plate counts (Spangler, et al., Antimicrob. Agents Chemother. 41:2173-9176, 1997; Spangler, et al., Antimicrob. Agents Chemother. 42:1253-1255, 1998).
The PAE was defined as PAE=T-C; T=time required for viability counts of an antibiotic-exposed culture to increase by 1 log10 above counts immediately after dilution; C=corresponding time for growth control. For each experiment, viability counts (log10 cfu/ml) were plotted against time, and results expressed as the mean of two separate assays±S D (Craig, et al., V. Lorian (ed), Antibiotics in Laboratory Medicine, Williams and Wilkins, Baltimore, pages 296-329, 1996).

[5] = all 207 strains (64 penicillin susceptible, 68 intermediate, 75 resistant)
[6] = 5×MIC, quinolone resistant strain
[7] = 10×MIC for 1 h, range over 5 quinolone susceptible strains

`C[C@H]1COc2c(N3CCN(C)CC3)c(F)cc3c(=O)c(C(=O)O)cn1c23` [Levofloxacin, levofloxacin] was tested, and the “number of strains with lower MICs in the presence of reserpine” value [1] was 7 strains, the “Number of dilutions decrease after incubation with reserpine” value (from here on “Number of dilutions decrease”) ([1]; strain 7) was 2X and the “Number of dilutions decrease” value ([1]; strain 11) was 4X. The “Number of dilutions decrease” value ([1]; strain 12) was 2X, the “Number of dilutions decrease” value ([1]; strain 23) was 2X and the “Number of dilutions decrease” value ([1]; strain 25) was 2x X. The “Number of dilutions decrease” value ([1]; strain 26) was 2x X, the “Number of dilutions decrease” value ([1]; strain 28) was 4x X and the MIC50 ([2]; Penicillin I strains) was 1 µg/mL (≈ 2.77 µM). It also gave an MIC90 ([2]; Penicillin I strains) of 2 µg/mL (≈ 5.53 µM), an MIC ([2]; Penicillin I strains) of 0.5 to 4 µg/mL (≈ 1.38 to 11.1 µM) and an MIC50 ([2]; Penicillin R strains) of 1 µg/mL (≈ 2.77 µM). The MIC90 ([2]; Penicillin R strains) was 2 µg/mL (≈ 5.53 µM), the MIC ([2]; Penicillin R strains) was 1 to 2 µg/mL (≈ 2.77 to 5.53 µM) and the MIC50 ([2]; Penicillin S strains) was 1 µg/mL (≈ 2.77 µM). It also gave an MIC90 ([2]; Penicillin S strains) of 2 µg/mL (≈ 5.53 µM), an MIC ([2]; Penicillin S strains) of 0.125 to 4 µg/mL (≈ 0.346 to 11.1 µM) and an MIC50 [2, 5] of 1 µg/mL (≈ 2.77 µM). For the same molecule, the MIC90 [2, 5] was 2 µg/mL (≈ 5.53 µM), the MIC (pneumococcal strains; strain 1 (S) penicillin susceptible) was 2 µg/mL (≈ 5.53 µM) and the MIC (pneumococcal strains; strain 2 (S) penicillin susceptible) was 1 µg/mL (≈ 2.77 µM). For the same molecule, the MIC (pneumococcal strains; strain 3 (S) penicillin susceptible, quinolone-resistant) was 32 µg/mL (≈ 88.6 µM), the MIC (pneumococcal strains; strain 4 (S) penicillin susceptible, quinolone-resistant) was 32 µg/mL (≈ 88.6 µM) and the MIC (pneumococcal strains; strain 5 (I) penicillin intermediate) was 1 µg/mL (≈ 2.77 µM). It also gave an MIC (pneumococcal strains; strain 6 (I) penicillin intermediate) of 2 µg/mL (≈ 5.53 µM), an MIC (pneumococcal strains; strain 7 (I) penicillin intermediate) of 1 µg/mL (≈ 2.77 µM) and an MIC (pneumococcal strains; strain 8 (I) penicillin intermediate) of 1 µg/mL (≈ 2.77 µM). The MIC (pneumococcal strains; strain 9 (R) penicillin resistant) was 2 µg/mL (≈ 5.53 µM), the MIC (pneumococcal strains; strain 10 (I)) was 2 µg/mL (≈ 5.53 µM) and the MIC (pneumococcal strains; strain 11 (R) penicillin resistant) was 1 µg/mL (≈ 2.77 µM). For the same molecule, the MIC (pneumococcal strains; strain 12 (R) penicillin resistant) was 2 µg/mL (≈ 5.53 µM), the MIC50 [3] was 1 µg/mL (≈ 2.77 µM) and the “MIC Range” value [3] was 0.25 to 4.0 µg/mL. It also gave a PAE [4, 6] of 1.3 h and a PAE [4, 7] of 0.9 to 2.3 h.

`O=C(O)c1cn(C2CC2)c2cc(N3CCNCC3)c(F)cc2c1=O` [Ciprofloxacin, ciprofloxacin] was tested, and the “number of strains with lower MICs in the presence of reserpine” value [1] was 23 strains, the “Number of dilutions decrease” value ([1]; strain 1) was 2x X and the “Number of dilutions decrease” value ([1]; strain 2) was 8x X. For the same molecule, the “Number of dilutions decrease” value ([1]; strain 6) was 2X, the “Number of dilutions decrease” value ([1]; strain 8) was 2X and the “Number of dilutions decrease” value ([1]; strain 9) was 8X. For the same molecule, the “Number of dilutions decrease” value ([1]; strain 10) was 2X, the “Number of dilutions decrease” value ([1]; strain 11) was 16X and the “Number of dilutions decrease” value ([1]; strain 13) was 2X. For the same molecule, the “Number of dilutions decrease” value ([1]; strain 18) was 2X, the “Number of dilutions decrease” value ([1]; strain 19) was 2X and the “Number of dilutions decrease” value ([1]; strain 20) was 2X. For the same molecule, the “Number of dilutions decrease” value ([1]; strain 21) was 2X, the “Number of dilutions decrease” value ([1]; strain 22) was 2X and the “Number of dilutions decrease” value ([1]; strain 23) was 8X. For the same molecule, the “Number of dilutions decrease” value ([1]; strain 24) was 2x X, the “Number of dilutions decrease” value ([1]; strain 28) was 8x X and the MIC50 [3] was 1 µg/mL (≈ 3.02 µM). For the same molecule, the “MIC Range” value [3] was 0.25 to 8.0 µg/mL, the PAE [4, 6] was 3.7 h and the PAE [4, 7] was 0.5 to 1.5 h. It also gave a PAE ([4]; 10×MIC, quinolone resistant strain) of 6.3 h.

— patent publication US20040044006A1, “Methods of use of quinolone compounds against pneumococcal and haemophilus bacteria” (priority 1999, published 2004)
